For 20 compounds, T/C results are on record in PubChem BioAssay AID256 (DTP/NCI, 2004).

“And” between values parts separate entries of the source, which are not always exact repeats. Equal entries are not always repeated. Toxic doses and inconclusive results are not listed.

This assay deals with CD2F1 mice, L1210 leukemia ip, survival T/C. In words: NCI In Vivo Anticancer Drug Screen. Data for tumor model L1210 Leukemia (intraperitoneal) in CD2F1 (CDF1) mice. Conditions: higher = longer survival. In short, it runs like this:
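Transplantable tumor in mice; compound-treated vs vehicle-treated groups. Read-out = treated/control ratio of the measured endpoint.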

[1] abbreviates: endpoint: mean survival time, dose: 100.0 mg/kg/injection, schedule: Q01DX009 (ip), vehicle: Klucel (hydroxypropylcellulose) (HPC).
The mark [2] stands for this setting: endpoint: mean survival time, dose: 200.0 mg/kg/injection, schedule: Q01DX009 (ip), vehicle: Klucel (hydroxypropylcellulose) (HPC).
[3] abbreviates: endpoint: mean survival time, dose: 50.0 mg/kg/injection, schedule: Q01DX009 (ip), vehicle: Klucel (hydroxypropylcellulose) (HPC).
[4] abbreviates: endpoint: mean survival time, dose: 100.0 mg/kg/injection, schedule: Q01DX009 (ip), vehicle: saline with Tween-80.
[5] abbreviates: endpoint: mean survival time, dose: 200.0 mg/kg/injection, schedule: Q01DX009 (ip), vehicle: saline with Tween-80.
Where [6] appears, read: endpoint: mean survival time, dose: 75.0 mg/kg/injection, schedule: Q01DX001 (ip), vehicle: saline.
[7] abbreviates: endpoint: mean survival time, dose: 150.0 mg/kg/injection, schedule: Q01DX001 (ip), vehicle: saline.
Where [8] appears, read: endpoint: mean survival time, dose: 100.0 mg/kg/injection, schedule: Q04DX003 (ip), vehicle: saline with Tween-80.
[9] abbreviates: endpoint: mean survival time, dose: 200.0 mg/kg/injection, schedule: Q04DX003 (ip), vehicle: saline with Tween-80.
Setting [10] is: endpoint: mean survival time, dose: 400.0 mg/kg/injection, schedule: Q04DX003 (ip), vehicle: saline with Tween-80.

Turning to `C=Cn1ccnc1`, the T/C (endpoint: mean survival time, dose: 25.0 mg/kg/injection, schedule: Q01DX001 (ip), vehicle: saline with Tween-80) was 103 % of control; the T/C (endpoint: mean survival time, dose: 50.0 mg/kg/injection, schedule: Q01DX001 (ip), vehicle: saline with Tween-80) was 100 % of control; the T/C (endpoint: mean survival time, dose: 100.0 mg/kg/injection, schedule: Q01DX001 (ip), vehicle: saline with Tween-80) was 114 % of control and 118 % of control; the T/C (endpoint: mean survival time, dose: 200.0 mg/kg/injection, schedule: Q01DX001 (ip), vehicle: saline with Tween-80) is 97 % of control; the T/C (endpoint: mean survival time, dose: 400.0 mg/kg/injection, schedule: Q01DX001 (ip), vehicle: saline with Tween-80) is 101 % of control.
Regarding `CCOS(=O)(=O)c1ccc(N)c([N+](=O)[O-])c1`, the T/C by setting is: (endpoint: mean survival time, dose: 100.0 mg/kg/injection, schedule: Q01DX001 (ip), vehicle: Klucel (hydroxypropylcellulose) (HPC)) 100 % of control; under setting [1], 100 % of control; (endpoint: mean survival time, dose: 200.0 mg/kg/injection, schedule: Q01DX001 (ip), vehicle: Klucel (hydroxypropylcellulose) (HPC)) 111 % of control; under setting [2], 100 % of control; (endpoint: mean survival time, dose: 400.0 mg/kg/injection, schedule: Q01DX001 (ip), vehicle: Klucel (hydroxypropylcellulose) (HPC)) 100 % of control.
As to `CC12CCC(c3cn(C(=O)c4cccnc4)nc31)C2(C)C` (centres undefined), the T/C is, setting by setting: under setting [3], 102 % of control; under setting [1], 94 % of control.
Take `Cc1ncc(CO)c(C2NOCc3nscc32)c1O` (centres undefined): the T/C was 90 % of control (endpoint: mean survival time, dose: 18.0 mg/kg/injection, schedule: Q01DX009 (ip), vehicle: Klucel (hydroxypropylcellulose) (HPC)) and 89 % of control (endpoint: mean survival time, dose: 28.0 mg/kg/injection, schedule: Q01DX009 (ip), vehicle: Klucel (hydroxypropylcellulose) (HPC)).
On to `COc1cc2ccc(C=O)cc2cc1OC`, for which the T/C was 97 % of control (endpoint: mean survival time, dose: 12.5 mg/kg/injection, schedule: Q01DX009 (ip), vehicle: Klucel (hydroxypropylcellulose) (HPC)); 94 % of control (endpoint: mean survival time, dose: 25.0 mg/kg/injection, schedule: Q01DX009 (ip), vehicle: Klucel (hydroxypropylcellulose) (HPC)); 92 % of control under setting [3]; 86 % of control under setting [1]; 86 % of control under setting [2]; 90 % of control (endpoint: mean survival time, dose: 400.0 mg/kg/injection, schedule: Q01DX009 (ip), vehicle: Klucel (hydroxypropylcellulose) (HPC)).
Regarding `O=C(O)C(CSC(c1ccccc1)(c1ccccc1)c1ccccc1)N=Cc1cccs1` (centres undefined), the T/C was 109 % of control (endpoint: mean survival time, dose: 12.5 mg/kg/injection, schedule: Q01DX009 (ip), vehicle: saline); 113 % of control (endpoint: mean survival time, dose: 12.5 mg/kg/injection, schedule: Q01DX009 (ip), vehicle: suspension in saline); 111 % of control (endpoint: mean survival time, dose: 25.0 mg/kg/injection, schedule: Q01DX009 (ip), vehicle: suspension in saline); 163 % of control (endpoint: mean survival time, dose: 66.0 mg/kg/injection, schedule: Q01DX009 (ip), vehicle: saline); 172 % of control under setting [4]; 163 % of control (endpoint: mean survival time, dose: 100.0 mg/kg/injection, schedule: Q01DX009 (ip), vehicle: saline). The T/C (endpoint: mean survival time, dose: 100.0 mg/kg/injection, schedule: Q01DX009 (ip), vehicle: suspension in saline) is 173 % of control; the T/C under setting [5] is 118 % of control; the T/C (endpoint: mean survival time, dose: 200.0 mg/kg/injection, schedule: Q01DX009 (ip), vehicle: saline) is 90 % of control; the T/C (endpoint: mean survival time, dose: 200.0 mg/kg/injection, schedule: Q01DX009 (ip), vehicle: suspension in saline) is 94 % of control.
With `N#Cc1cccnc1Cl`, the T/C reads like this: (endpoint: median survival time, dose: 50.0 mg/kg/injection, schedule: Q04DX002 (ip), vehicle: saline with Tween-80) 100 % of control; (endpoint: median survival time, dose: 100.0 mg/kg/injection, schedule: Q04DX002 (ip), vehicle: saline with Tween-80) 100 % of control; (endpoint: median survival time, dose: 200.0 mg/kg/injection, schedule: Q04DX002 (ip), vehicle: saline with Tween-80) 111 % of control.
For `COC/C=N/N(C)C`, the T/C reads like this: under setting [6], 100 % of control; under setting [7], 96 % of control.
On to `Cc1oc2ncnc(N)c2c1C`, for which the T/C runs as follows: under setting [8], 96 % of control; under setting [9], 100 % of control; under setting [10], 95 % of control.
As to `COCCNC(=O)Nc1cccc2c1CCCC2`, the T/C is 106 % of control under setting [8], 97 % of control under setting [9] and 91 % of control under setting [10].
For `CCC1=[N+]([O-])[N+]([O-])=C(c2ccccc2)C1=O`, the T/C is 93 % of control (endpoint: mean survival time, dose: 50.0 mg/kg/injection, schedule: Q01DX009 (ip), vehicle: other); 101 % of control (endpoint: mean survival time, dose: 100.0 mg/kg/injection, schedule: Q01DX009 (ip), vehicle: other); 93 % of control (endpoint: mean survival time, dose: 200.0 mg/kg/injection, schedule: Q01DX009 (ip), vehicle: other).
For the compound `CCCCCCCCCCCC(=O)OCC1OC2C(Oc3nc(=N)ccn32)C1OC(=O)CCCCCCCCCCC` (centres undefined), the T/C is, setting by setting: (endpoint: mean survival time, dose: 12.5 mg/kg/injection, schedule: Q01DX009 (ip), vehicle: water) 168 % of control; (endpoint: mean survival time, dose: 25.0 mg/kg/injection, schedule: Q01DX009 (ip), vehicle: water) 247 % of control; (endpoint: mean survival time, dose: 50.0 mg/kg/injection, schedule: Q01DX009 (ip), vehicle: water) 187 % of control; (endpoint: mean survival time, dose: 100.0 mg/kg/injection, schedule: Q01DX009 (ip), vehicle: water) 98 % of control.
Regarding `CCOC(=O)C1=C(Nc2ccc(OC)cc2)C(N)=NC1=N`, the T/C runs as follows: (endpoint: median survival time, dose: 6.25 mg/kg/injection, schedule: Q01DX005 (ip), vehicle: suspension in saline) 98 % of control; (endpoint: median survival time, dose: 12.5 mg/kg/injection, schedule: Q01DX005 (ip), vehicle: suspension in saline) 101 % of control and 107 % of control; (endpoint: median survival time, dose: 25.0 mg/kg/injection, schedule: Q01DX005 (ip), vehicle: suspension in saline) 101 % of control and 107 % of control; (endpoint: median survival time, dose: 36.0 mg/kg/injection, schedule: Q01DX005 (ip), vehicle: saline) 105 % of control and 108 % of control; (endpoint: median survival time, dose: 50.0 mg/kg/injection, schedule: Q01DX005 (ip), vehicle: saline) 111 % of control; (endpoint: median survival time, dose: 50.0 mg/kg/injection, schedule: Q01DX005 (ip), vehicle: suspension in saline) 101 % of control and 107 % of control. Moreover, the T/C runs as follows: (endpoint: median survival time, dose: 60.0 mg/kg/injection, schedule: Q01DX005 (ip), vehicle: saline) 102 % of control; (endpoint: median survival time, dose: 100.0 mg/kg/injection, schedule: Q01DX005 (ip), vehicle: saline) 106 % of control; (endpoint: median survival time, dose: 100.0 mg/kg/injection, schedule: Q01DX005 (ip), vehicle: suspension in saline) 117 % of control.
Regarding `NC1=C(Cl)C(=O)c2ccccc2C1=O`, under setting [8], the T/C was 102 % of control.
As to `CC(=O)OC1CCC2(C)C(CCC3(C)C2CC=C2C4CC(C)(C)CCC4(C)CCC23C)C1(C)C` (centres undefined), the T/C reads like this: (endpoint: mean survival time, dose: 100.0 mg/kg/injection, schedule: Q01DX001 (ip), vehicle: saline) 101 % of control; (endpoint: mean survival time, dose: 200.0 mg/kg/injection, schedule: Q01DX001 (ip), vehicle: saline) 101 % of control; (endpoint: mean survival time, dose: 400.0 mg/kg/injection, schedule: Q01DX001 (ip), vehicle: saline) 101 % of control.
Turning to `CCN(CC)c1ccc(N=Nc2cc(Cl)ccc2Cl)c(NC(=O)CSC(C)=O)c1`, the T/C is 94 % of control (endpoint: mean survival time, dose: 100.0 mg/kg/injection, schedule: Q04DX003 (ip), vehicle: other); 100 % of control (endpoint: mean survival time, dose: 200.0 mg/kg/injection, schedule: Q04DX003 (ip), vehicle: other); 97 % of control (endpoint: mean survival time, dose: 400.0 mg/kg/injection, schedule: Q04DX003 (ip), vehicle: other).
Turning to `CC(C)CC(CCl)Cc1nc2ccccc2[nH]1` (centres undefined), the T/C (endpoint: mean survival time, dose: 100.0 mg/kg/injection, schedule: Q04DX002 (ip), vehicle: saline with Tween-80) is 94 % of control and the T/C (endpoint: mean survival time, dose: 200.0 mg/kg/injection, schedule: Q04DX002 (ip), vehicle: saline with Tween-80) was 97 % of control.
In the case of `O=c1sc2ccccc2n1CCSCCn1c(=S)sc2ccccc21`, the T/C was 93 % of control (endpoint: mean survival time, dose: 100.0 mg/kg/injection, schedule: Q04DX003 (ip), vehicle: saline); 96 % of control (endpoint: mean survival time, dose: 200.0 mg/kg/injection, schedule: Q04DX003 (ip), vehicle: saline); 96 % of control (endpoint: mean survival time, dose: 400.0 mg/kg/injection, schedule: Q04DX003 (ip), vehicle: saline).
Take `C/C=C/COC1CCS(=O)(=O)C1` (centres undefined): the T/C by setting is: (endpoint: mean survival time, dose: 50.0 mg/kg/injection, schedule: Q01DX009 (ip), vehicle: saline with Tween-80) 104 % of control; under setting [4], 97 % of control; under setting [5], 97 % of control.
For `CC1(C2CCN(Cc3ccccc3)CC2)OCCO1`, the T/C by setting is: under setting [6], 101 % of control; under setting [7], 97 % of control.
